Earlier results in US6369001B1, “Microemulsion coformulation of a graminicide and a water-soluble herbicide” (Monsanto Technology, LLC, priority 1999, dated 2002).
Entries after “also recorded” stand apart in the source; their conditions may differ.

settings: aqueous medium

Row | SMILES | pH dependence of chemical stability / hydrolysis in water
1 | COC(=O)C(C)Oc1ccc(Oc2ccc(Cl)cc2Cl)cc1 (stereo not drawn) [diclofop-methyl] | undergoes hydrolysis more readily in an alkaline medium
2 | CCOC(=O)[C@@H](C)Oc1ccc(Oc2cnc3cc(Cl)ccc3n2)cc1 [quizalofop-P-ethyl] | hydrolysis occurring most rapidly when pH is in the alkaline range; also recorded: greater chemical stability in acid to neutral than in alkaline media
3 | CCO/N=C(\CC)C1=C(O)CC(c2c(C)cc(C)cc2C)CC1=O (stereo not drawn) [tralkoxydim] | especially unstable in an acid medium; also recorded: much more stable at pH 9 than at pH 5
